Among the test systems are COLO 205 colon; HCC-2998 colon; HCT-15 colon; IGROV1 ovarian; K-562 leukemia; KM12 colon; MOLT-4 leukemia; SF-295 CNS; SF-539 CNS; UO-31 renal.
Assay in all cases: inhibition of tumour cell growth, NCI panel, 48 h

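The compound was tested at five concentrations on cells cultured in 96-well plates, with a 48-hour exposure period. GI50 marks 50% less growth. The concentration for full growth arrest is given as TGI.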

`N#CCc1c(F)c(F)c(F)c(F)c1F`: the TGI with COLO 205 colon, with HCC-2998 colon, with HCT-15 colon, with IGROV1 ovarian, with K-562 leukemia and with KM12 colon was greater than 100 µM in each case. Besides, the TGI in the experiment with MOLT-4 leukemia, with SF-295 CNS, with SF-539 CNS and in the experiment with UO-31 renal was greater than 100 µM in each case.

On to `Nc1nc(=O)n(C2CC(O)C(CO)O2)cc1F` (stereo not drawn), for which the TGI is greater than 100 µM with COLO 205 colon; greater than 26.4 µM in the experiment on HCC-2998 colon; greater than 100 µM in the experiment with HCT-15 colon; greater than 100 µM with IGROV1 ovarian; greater than 100 µM with K-562 leukemia; greater than 100 µM in the experiment on KM12 colon. Also, the TGI with SF-295 CNS is greater than 100 µM; in the experiment with SF-539 CNS it was less than 0.0448 µM; with UO-31 renal it was greater than 43.3 µM. In addition, the GI50 with HCC-2998 colon was 0.000943 µM; in the experiment on HCT-15 colon, 28.4 µM; in the experiment on IGROV1 ovarian, greater than 100 µM; with K-562 leukemia it was greater than 100 µM; in the experiment on KM12 colon, greater than 66.3 µM; in the experiment with MOLT-4 leukemia it was 0.00502 µM. Also, the GI50 in the experiment on SF-539 CNS is 0.00418 µM.

Turning to `CC1(C)OB(c2ccc(N(CCOS(C)(=O)=O)CCOS(C)(=O)=O)cc2)OC1(C)C`, the GI50 in the experiment on COLO 205 colon is 24.1 µM; with HCC-2998 colon, 15.7 µM; in the experiment on HCT-15 colon, 15.6 µM; in the experiment with IGROV1 ovarian, 4.89 µM; with K-562 leukemia, 16.3 µM; with KM12 colon it was 26.8 µM. Further, the GI50 in the experiment with MOLT-4 leukemia was 1.68 µM; with SF-295 CNS, 12.9 µM; in the experiment with SF-539 CNS it was 7.55 µM; in the experiment on UO-31 renal, 16.5 µM. The TGI with COLO 205 colon is greater than 100 µM; in the experiment on HCC-2998 colon it was 49 µM; in the experiment on HCT-15 colon it was 41 µM; in the experiment with IGROV1 ovarian, 35.4 µM; in the experiment with K-562 leukemia it was greater than 86.2 µM; with KM12 colon, greater than 85 µM. The TGI in the experiment with MOLT-4 leukemia was greater than 72.7 µM; in the experiment on SF-295 CNS it was greater than 55 µM; in the experiment on SF-539 CNS it was 29.9 µM; in the experiment with UO-31 renal, greater than 64.6 µM.

With `CC(=O)NNc1nc(C)c(C(=O)NNC(=O)C(=O)Nc2ccc(Cl)c([N+](=O)[O-])c2)s1`, the TGI is greater than 100 µM in the experiment with COLO 205 colon; greater than 100 µM with HCC-2998 colon; greater than 100 µM in the experiment with HCT-15 colon; greater than 100 µM with IGROV1 ovarian; 74.4 µM with K-562 leukemia; greater than 100 µM with KM12 colon. Also, the TGI in the experiment with MOLT-4 leukemia was 54.6 µM; in the experiment on SF-295 CNS it was greater than 100 µM; with SF-539 CNS, greater than 100 µM; in the experiment with UO-31 renal, greater than 100 µM.

In the case of `N#Cc1ncc(C(Cl)Cl)nc1Cl`, the TGI with COLO 205 colon was 3.3 µM; with HCC-2998 colon, 3.06 µM; in the experiment with HCT-15 colon, 3.87 µM; in the experiment on IGROV1 ovarian, 5.3 µM; in the experiment on K-562 leukemia, greater than 7.1 µM; with KM12 colon, 2.7 µM. The TGI was greater than 6.63 µM in the experiment with MOLT-4 leukemia, greater than 10 µM in the experiment with SF-295 CNS, 3.44 µM in the experiment with SF-539 CNS and 3.17 µM with UO-31 renal.

`CC/C=C\C[C@H]1C/C=C2/C(=O)C=C[C@H]2C/C=C\CCCC(=O)O1`: the GI50 in the experiment on COLO 205 colon is 1.87 µM; in the experiment with HCC-2998 colon, 2.37 µM; with HCT-15 colon it was 1.5 µM; in the experiment with IGROV1 ovarian, 2.66 µM; in the experiment on K-562 leukemia, 1.89 µM; with MOLT-4 leukemia, 1.84 µM. For the same molecule, the GI50 is 2.62 µM with SF-295 CNS, 2.07 µM in the experiment with SF-539 CNS and 4.87 µM in the experiment on UO-31 renal. Moreover, the TGI with COLO 205 colon was 6.7 µM; in the experiment with HCC-2998 colon it was 8.43 µM; with HCT-15 colon it was 7.04 µM; in the experiment with IGROV1 ovarian it was 8.99 µM; in the experiment with K-562 leukemia, greater than 50 µM; in the experiment on MOLT-4 leukemia it was 25.1 µM. Besides, the TGI with SF-295 CNS was determined as 9.33 µM; with SF-539 CNS it was 8.16 µM; in the experiment with UO-31 renal it was 11.2 µM.

Regarding `C#CCN(N=O)C(=O)NC(CCCCNC(=O)OCc1ccccc1)C(=O)OCc1ccccc1` (stereo not drawn), the TGI in the experiment on COLO 205 colon is 96.6 µM; in the experiment with HCC-2998 colon, greater than 100 µM; in the experiment with HCT-15 colon it was 47.2 µM; with IGROV1 ovarian, greater than 100 µM; in the experiment with K-562 leukemia it was 50.5 µM; in the experiment on KM12 colon it was greater than 100 µM. For the same molecule, the TGI in the experiment with MOLT-4 leukemia is 41.5 µM; in the experiment with SF-295 CNS, greater than 100 µM; with UO-31 renal it was 87 µM.

On to `COc1ccc(-n2cc(-c3cc(OC)c(OC)c(OC)c3)nc2SCc2ccc(Cl)cc2)cc1OC`, for which the GI50 in the experiment on COLO 205 colon is greater than 100 µM; in the experiment on HCC-2998 colon it was greater than 100 µM; with HCT-15 colon it was 30.5 µM; in the experiment with K-562 leukemia, 87.5 µM; in the experiment on KM12 colon it was greater than 100 µM; in the experiment on MOLT-4 leukemia, greater than 100 µM. Also, the values for the GI50 in the experiment on SF-295 CNS, in the experiment on SF-539 CNS and with UO-31 renal were greater than 100 µM, greater than 100 µM and 27.8 µM, respectively. For the same molecule, the TGI with COLO 205 colon, in the experiment with HCC-2998 colon, in the experiment on HCT-15 colon, with K-562 leukemia, with KM12 colon and in the experiment on MOLT-4 leukemia was greater than 100 µM throughout. Further, the TGI with SF-295 CNS, in the experiment on SF-539 CNS and in the experiment with UO-31 renal was greater than 100 µM throughout.

In the case of `OCC#CCOCC#Cc1ccccc1C#CCOCC#CCO`, the GI50 with HCC-2998 colon is 29 µM; with HCT-15 colon, 20.9 µM; with IGROV1 ovarian, greater than 100 µM; with K-562 leukemia it was 27 µM; with KM12 colon, 35.1 µM; with MOLT-4 leukemia, 44.8 µM. Besides, the GI50 in the experiment on SF-295 CNS is greater than 100 µM; in the experiment on SF-539 CNS, 47.4 µM; in the experiment on UO-31 renal it was greater than 100 µM. The TGI in the experiment with HCC-2998 colon is 75.3 µM; with HCT-15 colon, greater than 100 µM; in the experiment with IGROV1 ovarian, greater than 100 µM; in the experiment with K-562 leukemia it was 90 µM; in the experiment on KM12 colon, greater than 100 µM; with MOLT-4 leukemia, greater than 100 µM. Further, the TGI with SF-295 CNS, in the experiment with SF-539 CNS and in the experiment on UO-31 renal was greater than 100 µM each time.

For the molecule `CC1=C(C(=O)Nc2cccc(Cl)c2)C(c2ccccc2O)C(C(=O)Nc2cccc(Cl)c2)=C(C)N1`, the TGI worked out at 43.2 µM in the experiment with COLO 205 colon; 33.1 µM in the experiment on HCC-2998 colon; 70.7 µM in the experiment with IGROV1 ovarian; 53.7 µM in the experiment with K-562 leukemia; 31.2 µM in the experiment with KM12 colon; 59.2 µM in the experiment on MOLT-4 leukemia. Further, the TGI with SF-295 CNS amounted to 40.6 µM; in the experiment on SF-539 CNS, 34.3 µM; in the experiment with UO-31 renal it was 31.3 µM.

For the molecule `CC(=O)OCCOCn1c2ccccc2c2c3c(c4c5ccccc5n(COCCOC(C)=O)c4c21)C(=O)N(Cc1ccccc1)C3=O`, the TGI in the experiment with COLO 205 colon, with HCC-2998 colon, in the experiment with HCT-15 colon, in the experiment on IGROV1 ovarian, in the experiment with K-562 leukemia and with MOLT-4 leukemia was greater than 100 µM in each case. In addition, the TGI in the experiment on SF-539 CNS and in the experiment on UO-31 renal was greater than 100 µM throughout.

Turning to `CCCCCC/C=C/C#CCCCCCCCC(=O)O`, the TGI in the experiment with COLO 205 colon, with HCC-2998 colon, in the experiment with HCT-15 colon, in the experiment with IGROV1 ovarian, with K-562 leukemia and in the experiment on KM12 colon was greater than 100 µM in each case. The TGI in the experiment with MOLT-4 leukemia, with SF-295 CNS and with SF-539 CNS was greater than 100 µM in each case.

On to `CC(Oc1cc2oc(=O)cc(-c3ccccc3)c2cc1Cl)C(=O)O` (stereo not drawn), for which the TGI with COLO 205 colon, in the experiment on HCC-2998 colon, with IGROV1 ovarian, in the experiment with K-562 leukemia, with KM12 colon and in the experiment with MOLT-4 leukemia was greater than 100 µM throughout. Also, the TGI in the experiment on SF-295 CNS, in the experiment on SF-539 CNS and with UO-31 renal was greater than 100 µM in each case.

Turning to `Cc1cccc(C(C)(C)C)c1NC(=O)C(C#N)C1=C(Cl)C(=O)c2ccccc2C1=O` (stereo not drawn), the TGI in the experiment on COLO 205 colon turned out to be 35 µM; in the experiment with HCC-2998 colon, 29.7 µM; in the experiment with IGROV1 ovarian, 33 µM; in the experiment on K-562 leukemia, 10.2 µM; in the experiment with KM12 colon, 31.3 µM; in the experiment on MOLT-4 leukemia it was 22.6 µM. Also, the TGI is 30.8 µM in the experiment on SF-295 CNS, 32.5 µM in the experiment on SF-539 CNS and 27.9 µM in the experiment with UO-31 renal.

Consider `O=C1OC(CC(=O)c2ccc(F)cc2)C(Cl)=C1Cl` (stereo not drawn), for which the TGI in the experiment on HCC-2998 colon was 30.1 µM; in the experiment with HCT-15 colon, 35.5 µM; with IGROV1 ovarian it was 72.7 µM; with K-562 leukemia, greater than 100 µM; in the experiment on KM12 colon it was 33 µM; in the experiment on MOLT-4 leukemia it was greater than 100 µM. Further, the TGI is greater than 100 µM in the experiment on SF-295 CNS, 35.2 µM in the experiment on SF-539 CNS and 38.5 µM with UO-31 renal.

As for `CCCCC(C(=O)C(=O)Nc1ccc(C)cc1C)C(=O)C(C)C` (stereo not drawn), the TGI in the experiment with HCC-2998 colon, in the experiment with HCT-15 colon, in the experiment on IGROV1 ovarian, in the experiment with K-562 leukemia, in the experiment with KM12 colon and in the experiment with MOLT-4 leukemia was greater than 100 µM throughout. Moreover, the TGI with SF-295 CNS, in the experiment with SF-539 CNS and in the experiment on UO-31 renal was greater than 100 µM each time.

As to `C/C(NNC(=O)c1ccccc1O)=C1\C=Nc2ccccc2S1`, the TGI in the experiment with HCC-2998 colon is 7.45 µM; in the experiment with IGROV1 ovarian it was greater than 100 µM; in the experiment on K-562 leukemia it was greater than 100 µM; with KM12 colon it was greater than 100 µM; in the experiment with MOLT-4 leukemia, greater than 100 µM; in the experiment on SF-295 CNS it was greater than 100 µM. In addition, the values for the TGI with SF-539 CNS and with UO-31 renal were 7.81 µM and 5.68 µM, respectively.

`CC(C)N(C(=O)C12C3C4C1C1C2C3C41C(=O)C(C)(C)C)C(C)C` (stereo not drawn): the TGI in the experiment with COLO 205 colon, in the experiment with HCC-2998 colon, with IGROV1 ovarian, with K-562 leukemia, with KM12 colon and in the experiment with MOLT-4 leukemia was greater than 100 µM throughout. In addition, the TGI with SF-295 CNS, in the experiment on SF-539 CNS and with UO-31 renal was greater than 100 µM in each case.

The values above are taken from PubChem BioAssay (NCI).
